Measured values from patent US20220033397A1, “PHARMACEUTICAL COMPOUNDS AND THEIR USE AS INHIBITORS OF UBIQUITIN SPECIFIC PROTEASE 19 (USP19)” (ALMAC DISCOVERY LIMITED, priority 2018, published 2022).

These compounds were tested against T1, Full-length USP19 (Homo sapiens, UniProt O94966) (assay: USP19 fluorescence polarisation (FP) homogeneous assay with Ubiquitin-Lys-TAMRA substrate). Details: 2.5 nM USP19, 30 min pre-incubation, average of at least two duplicate experiments.
T1 construct: Full-length USP19 was purchased from Boston Biochem (E-576); purchased Boston Biochem E-576
T1 sequence (O94966 1-1318): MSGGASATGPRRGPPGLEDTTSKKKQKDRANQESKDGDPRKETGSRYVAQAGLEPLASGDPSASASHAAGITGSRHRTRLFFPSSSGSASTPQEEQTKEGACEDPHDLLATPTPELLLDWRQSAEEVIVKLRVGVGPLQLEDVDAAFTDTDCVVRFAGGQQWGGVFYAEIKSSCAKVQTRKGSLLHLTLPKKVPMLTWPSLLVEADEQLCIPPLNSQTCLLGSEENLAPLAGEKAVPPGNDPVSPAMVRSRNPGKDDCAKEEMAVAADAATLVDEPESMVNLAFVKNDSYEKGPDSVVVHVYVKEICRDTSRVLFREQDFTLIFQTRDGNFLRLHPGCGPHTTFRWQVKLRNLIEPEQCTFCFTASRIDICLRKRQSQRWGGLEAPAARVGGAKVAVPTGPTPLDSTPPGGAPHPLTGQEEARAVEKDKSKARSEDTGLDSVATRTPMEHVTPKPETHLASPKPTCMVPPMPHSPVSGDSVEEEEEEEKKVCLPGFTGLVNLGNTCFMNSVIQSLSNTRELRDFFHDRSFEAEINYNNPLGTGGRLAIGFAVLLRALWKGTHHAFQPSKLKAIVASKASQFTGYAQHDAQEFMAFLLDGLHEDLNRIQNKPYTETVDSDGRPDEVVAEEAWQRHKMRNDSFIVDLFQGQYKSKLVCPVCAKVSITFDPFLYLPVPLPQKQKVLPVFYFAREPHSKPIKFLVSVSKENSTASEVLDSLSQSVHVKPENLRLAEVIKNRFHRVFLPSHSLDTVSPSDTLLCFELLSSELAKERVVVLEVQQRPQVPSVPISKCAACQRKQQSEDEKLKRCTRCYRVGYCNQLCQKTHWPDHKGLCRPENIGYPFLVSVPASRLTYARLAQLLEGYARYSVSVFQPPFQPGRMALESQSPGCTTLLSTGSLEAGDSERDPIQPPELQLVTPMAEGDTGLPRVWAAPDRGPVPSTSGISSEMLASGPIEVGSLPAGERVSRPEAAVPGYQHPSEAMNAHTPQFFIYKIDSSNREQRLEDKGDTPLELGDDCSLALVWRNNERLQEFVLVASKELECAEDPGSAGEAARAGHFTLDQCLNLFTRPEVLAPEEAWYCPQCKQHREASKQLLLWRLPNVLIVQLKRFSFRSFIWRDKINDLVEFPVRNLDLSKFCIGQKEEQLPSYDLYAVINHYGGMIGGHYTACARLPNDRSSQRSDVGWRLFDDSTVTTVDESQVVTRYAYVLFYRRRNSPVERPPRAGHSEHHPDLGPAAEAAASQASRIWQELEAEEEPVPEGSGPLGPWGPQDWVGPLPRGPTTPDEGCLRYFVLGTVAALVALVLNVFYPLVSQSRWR
Type: biochemical
Procedure: Unless otherwise stated, all other reagents were purchased from Sigma. Enzymatic reactions were conducted in black flat bottom polystyrene 384-well plates (Nunc) and 30 μL total volume. […] Inhibitors were stored as 10 mM DMSO stocks in an inert environment (low humidity, dark, low oxygen, room temperature) using the Storage Pod System and serial dilutions were prepared in buffer just prior to the assay (from 200 μM to 2 μM, 8-18 data point curve).
Following incubation at RT for 30 min, the enzymatic reactions were initiated by dispensing the Ub substrate (500 nM, 10 μL). FP was measured every 15 min over a period of 90 min (within the linear range of the assay) using a Synergy 4 plate reader (BioTek) exciting at 530 nm and measuring the amount of parallel and perpendicular light at 575 nm. The FP signal was subsequently normalised to the no compound control.

First: C[C@H](CC1CCCCC1)C(=O)N1CCC(O)(Cn2ccc3ncncc3c2=O)C2(CCCC2)C1 (stereo partly drawn) [Example 158, 6-((7-((R)-3-Cyclohexyl-2-methylpropanoyl)-10-hydroxy-7-azaspiro[4.5]decan-10-yl)methyl)pyrido[4,3-d]pyrimidin-5(6H)-one]
Second: CCn1cc2c(=O)n(CC3(O)CCN(C(=O)[C@H](C)CC4CCCCC4)CC34CCCC4)cnc2n1 (stereo partly drawn) [Example 152, 5-((7-((R)-3-Cyclohexyl-2-methylpropanoyl)-10-hydroxy-7-azaspiro[4.5]decan-10-yl)methyl)-2-ethyl-2,5-dihydro-4H-pyrazolo[3,4-d]pyrimidin-4-one]
The IC50 of the first is lower: 0.5 to 5 µM for the first, 50 to 250 µM for the second. The first is the more potent here.

`O=C(N1CCC(O)(Cn2cnc3ccc(F)cc3c2=O)C2(CCCC2)C1)N1CCNC[C@H]1c1ccccc1` (stereo partly drawn) [Example 169, 6-Fluoro-3-((10-hydroxy-7-((R)-2-phenylpiperazine-1-carbonyl)-7-azaspiro[4.5]decan-10-yl)methyl)quinazolin-4(3H)-one] and `COc1cccc(F)c1-c1cc(=O)n(C[C@]2(O)CCN(C(=O)N3CCNC[C@H]3c3ccccc3)CC23CCCC3)cn1` [Example 381, 6-(2-Fluoro-6-meth-oxyphenyl)-3-(((S)-10-hydroxy-7-((R)-2-phenylpiperazine-1-carbonyl)-7-aza-spiro[4.5]decan-10-yl)methyl)pyrimidin-4(3H)-one] cannot be ordered by IC50: < 0.5 µM for the first, < 0.5 µM for the second.

`O=C(NCc1ccccc1)N1CCC(O)(Cn2cnc(-c3cccnc3)cc2=O)C2(CCCC2)C1` (centres unmarked) [Example 200, N-Benzyl-10-hydroxy-10-((6-oxo-4-(pyridin-3-yl)pyrimidin-1(6H)-yl)methyl)-7-azaspiro[4.5]decane-7-carboxamide] and `Cn1cc(-c2cc(=O)n(CC3(O)CCN(C(=O)NCc4ccccc4)CC34CCCC4)cn2)cn1` (centres unmarked) [Example 204, N-Benzyl-10-hydroxy-10-((4-(1-methyl-1H-pyrazol-4-yl)-6-oxopyrimidin-1(6H)-yl)methyl)-7-azaspiro[4.5]decane-7-carboxamide] fall in the same range of IC50: 5 to 50 µM for the first, 5 to 50 µM for the second.

Compared with `O=C(N1CC[C@@](O)(Cn2cnc(-c3ccccc3OC3CC3)cc2=O)C2(CCCC2)C1)N1CCNC[C@H]1c1ccccc1` [Example 365, 6-(2-Cyclo-propoxyphenyl)-3-(((S)-10-hydroxy-7-((R)-2-phenylpipera-zine-1-carbonyl)-7-azaspiro[4.5]decan-10-yl)methyl)pyrimi-din-4(3H)-one], `COc1cccc(C2CNCCN2C(=O)N2CCC(O)(Cn3cnc(-c4ccccc4)cc3=O)C3(CCCC3)C2)c1` (centres unmarked) [Example 272, 3-((10-Hydroxy-7-(2-(3-methoxyphenyl)piperazine-1-carbonyl)-7-azaspiro[4.5]decan-10-yl)methyl)-6-phenylpyrimidin-4(3H)-one] is higher in IC50: < 0.5 µM for the first, 5 to 50 µM for the second. The first is the more potent here.

First: O=C(N1CCC(O)(Cn2cnc(-c3ccccc3)cc2=O)C2(CCCC2)C1)N1CCOCC1C1CC1 (centres unmarked) [Example 248, 3-((7-(3-Cyclopropylmorpholine-4-carbonyl)-10-hydroxy-7-azaspiro[4.5]decan-10-yl)methyl)-6-phenylpyrimidin-4(3H)-one]
Second: O=C(N1CCC(O)(Cn2cnc(-c3ccccc3)cc2=O)C2(CCCC2)C1)N1CCOCC1C1CCC1 (centres unmarked) [Example 230, 3-((7-(3-Cyclobutylmorpholine-4-carbonyl)-10-hydroxy-7-azaspiro[4.5]decan-10-yl)methyl)-6-phenylpyrimidin-4(3H)-one]
The IC50 of the first is lower: 5 to 50 µM for the first, 50 to 250 µM for the second. The first is the more potent here.

First: O=C(N1CCC(O)(Cn2ccncc2=O)C2(CCCC2)C1)N1CCOC[C@H]1c1ccccc1 (stereo partly drawn) [Example 90, 1-((10-Hydroxy-7-((R)-3-phenylmorpholine-4-carbonyl)-7-azaspiro[4.5]decan-10-yl)methyl)pyrazin-2(1H)-one]
Second: O=C(N1CCC(O)(Cn2ncc(-c3ccccc3)cc2=O)C2(CCCC2)C1)N1CCOC[C@H]1c1ccccc1 (stereo partly drawn) [Example 280, 2-((10-Hydroxy-7-((R)-3-phenylmorpholine-4-carbonyl)-7-azaspiro[4.5]decan-10-yl)methyl)-5-phenylpyridazin-3(2H)-one]
The IC50 of the first is higher: 0.5 to 5 µM for the first, < 0.5 µM for the second. The second is the more potent here.

First: CN(CC1CC1)C(=O)N1CC[C@@](O)(Cn2cnc(-c3ccccc3)cc2=O)C2(CCCC2)C1 [Example 313, (S)—N-(Cyclopropylmethyl)-10-hydroxy-N-methyl-10-((6-oxo-4-phenylpyrimidin-1(6H)-yl)methyl)-7-azaspiro[4.5]decane-7-carboxamide]
Second: O=C(N1CCC(C(F)F)C1)N1CCC(O)(Cn2cnc(-c3ccccc3)cc2=O)C2(CCCC2)C1 (centres unmarked) [Example 262, 3-((7-(3-(Difluoromethyl)pyrrolidine-1-carbonyl)-10-hydroxy-7-azaspiro[4.5]decan-10-yl)methyl)-6-phenylpyrimidin-4(3H)-one]
The IC50 of the first is lower: 0.5 to 5 µM for the first, 5 to 50 µM for the second.

First: Cc1nccn(CC2(O)CCN(C(=O)N3CCNC[C@H]3c3ccccc3)CC23CCCC3)c1=O (stereo partly drawn) [Example 93, 1-((10-Hydroxy-7-((R)-2-phenylpiperazine-1-carbonyl)-7-azaspiro[4.5]decan-10-yl)methyl)-3-methylpyrazin-2(1H)-one]
Second: Cn1nccc1-c1cc(=O)n(C[C@]2(O)CCN(C(=O)N3CCNC[C@H]3c3ccccc3)CC23CCCC3)cn1 [Example 289, 3-(((S)-10-Hydroxy-7-((R)-2-phenylpiperazine-1-carbonyl)-7-azaspiro[4.5]decan-10-yl)methyl)-6-(1-methyl-1H-pyrazol-5-yl)pyrimidin-4(3H)-one]
The IC50 of the first is higher: 5 to 50 µM for the first, < 0.5 µM for the second. The second is the more potent here.

First: C[C@H](CC(F)(F)F)C(=O)N1CCC(O)(Cn2ccc3ccc(F)cc3c2=O)C2(CCCC2)C1 (stereo partly drawn) [Example 135, 7-Fluoro-2-((10-hydroxy-7-((R)-4,4,4-trifluroo-2-methylbutanoyl)-7-azaspiro[4.5]decan-10-yl)methyl)isoquinolin-1(2H)-one]
Second: C[C@H](CC(F)(F)F)C(=O)N1CCC(O)(Cn2cnc3nc(N4CCOCC4)ncc3c2=O)C2(CCCC2)C1 (stereo partly drawn) [Example 162, 3-((10-Hydroxy-7-((R)-4,4,4-trifluoro-2-methylbutanoyl)-7-azaspiro[4.5]decan-10-yl)methyl)-7-morpholinopyrimido[4,5-d]pyrimidin-4(3H)-one]
The IC50 of the first is higher: 5 to 50 µM for the first, 0.5 to 5 µM for the second. The second is the more potent here.

First: O=C(N1CC[C@@](O)(Cn2cnc(-c3ccccc3)cc2=O)C2(CCCC2)C1)N1CCOC[C@H]1c1nc2ccccc2[nH]1 [Example 293, 3-(((S)-7-((R)-3-(1H-Benzo[d]imidazol-2-yl)morpholine-4-carbonyl)-10-hydroxy-7-azaspiro[4.5]decan-10-yl)methyl)-6-phenylpyrimidin-4(3H)-one]
Second: CC(=O)N1CCN(C(=O)N2CC[C@@](O)(Cn3cnc(-c4ccccc4)cc3=O)C3(CCCC3)C2)[C@H](c2ccccc2)C1 [Example 279, 3-(((S)-7-((R)-4-Acetyl-2-phenylpiperazine-1-carbonyl)-10-hydroxy-7-azaspiro[4.5]decan-10-yl)methyl)-6-phenylpyrimidin-4(3H)-one]
The IC50 of the first is higher: 50 to 250 µM for the first, 0.5 to 5 µM for the second. The second is the more potent here.

`O=C(NCc1ccccc1)N1CCC(O)(Cn2cnc(-c3ccccc3F)cc2=O)C2(CC2)C1` (centres unmarked) [Example 194, N-Benzyl-8-((4-(2-fluorophenyl)-6-oxopyrimidin-1(6H)-yl)methyl)-8-hydroxy-5-azaspiro[2.5]octane-5-carboxamide] and `CC(Cc1ccccc1)C(=O)N1CCC(O)(CN2CC(Cc3ccccc3)CC2=O)C(C)(C)C1` (centres unmarked) [Example 44, 4-Benzyl-1-((4-hydroxy-3,3-dimethyl-1-(2-methyl-3-phenylpropanoyl)piperidin-4-yl)methyl)pyrrolidin-2-one] fall in the same range of IC50: 50 to 250 µM for the first, 50 to 250 µM for the second.

In the case of `C[C@@H]1CN(CC2(O)CCN(C(=O)[C@H](C)CC(F)(F)F)CC23CCCC3)C(=O)CO1` (stereo partly drawn) [Example 94, (6R)-4-((10-Hydroxy-7-((R)-4,4,4-trifluoro-2-methylbutanoyl)-7-azaspiro[4.5]decan-10-yl)methyl)-6-methylmorpholin-3-one], the IC50 is reported as 50 to 250 µM.
